# From US20240196933A1, “USE OF GOSSYPOL AND A METHANE INHIBITOR FOR REDUCING THE FORMATION OF METHANE EMANATING FROM THE DIGESTIVE ACTIVITIES OF RUMINANTS” (DSM IP ASSETS B.V., priority 2021, published 2024)
# System: rumen liquor
# Test: In vitro test for methane production (modified Hohenheim Forage value Test, HFT)
# Type: cell-based
# Conditions: TMR feed, 8 h at 39° C.
# Protocol: In vitro test for methane production: A modified version of the “Hohenheim Forage value Test (HFT)” was used for testing the effect of specific compounds on the rumen functions mimicked by this in-vitro system.
# Principle: Feed is gadded into a syringe with a composition of rumen liquor and an appropriate mixture of buffers. The solution is incubated at 39° C. After 8 hours the quantity (and composition) of gas phase produced is measured and put into a formula for conversion.
# Sample weighing: The feed stuff (i.e. TMR (44% concentrate, 6% hay, 37% maize silage and 13% grass silage) is sieved to 1 mm and weighed exactly into 64 syringes. 4 of these syringes are the substrate controls, which display the gas production without the effect of the tested compounds. 4 other syringes are positive control (3-NOP, 10 μM). When needed, 4 syringes contain a carrier control (if the test compounds need a carrier). The remaining syringes contain the test substances, by groups of 4 syringes, in the amounts as indicated in table 1.
# • The components are mixed in a Woulff bottle in following order: • 711 ml water • 0.18 ml trace element solution • 355.5 ml buffer solution • 355.5 ml mass element solution • The completed solution is warmed up to 39° C. followed by the addition of 1.83 ml sodium salt solution and the addition of reduction solution at 36° C. The rumen liquor is added, when the indicator turns colourless.
# Extraction of the rumen liquor: 750 ml of rumen liquor are added to approximately 1,400 ml of medium solution under continued agitation and CO2-gassing.
# Filling the syringes, incubation and determining gas volumes and VFA values: The diluted rumen fluid (24 ml) is added to the glass syringe. The syringes are then incubated for 8 hours at 39° C. under gentle agitation. After 8 hours, the volume of gas produced is measured, and the percentage of methane in the gas phase is determined by gas chromatography.
# The food fermented was artificial TMR (44% concentrate, 6% hay, 37% maize silage and 13% grass silage). Gossypol was obtained from Sigma-Aldrich (G8761), and used at a concentration as outlined in table 1. 3-Nitrooxy-propanol (3-NOP) was used at the concentration as outlined in table 1.
SMILES,Total methane change [% vs. control] found (3-NOP 2.5 μM alone) [% vs. control],Total methane change [% vs. control] found (3-NOP 5 μM alone) [% vs. control],Total methane change [% vs. control] found (3-NOP 10 μM alone) [% vs. control],Total methane change [% vs. control] found (G 5 μM alone) [% vs. control],Total methane change [% vs. control] found (G 10 μM alone) [% vs. control],Total methane change [% vs. control] found (G 20 μM alone) [% vs. control],Total methane change [% vs. control] found (G 100 μM alone) [% vs. control]
"O=[N+]([O-])OCCCO [3-NOP, 3-Nitrooxy-propanol, reference compound]",−12,−54,−98,–,–,–,–
"Cc1cc2c(C(C)C)c(O)c(O)c(C=O)c2c(O)c1-c1c(C)cc2c(C(C)C)c(O)c(O)c(C=O)c2c1O [G, Gossypol]",–,–,–,−1,−11,−15,−69
